According to patent US8658668B2, “PI3 kinase/mTOR dual inhibitor” (Eli Lilly and Company, priority 2011, dated 2014):

Experiments:
[1] = tested on: human non-small cell lung cancer cells NCI-H1975; experiment: Xenograft tumor model, NCI-H1975; type: in vivo, mouse; details: oral gavage
Description: Expand human glioblastoma cells U87MG and human renal carcinoma cells 786-O, in culture, harvest and inject subcutaneously onto the rear flank of athymic nude mice. Expand human non-small cell lung cancer cells NCI-H1975 in culture, harvest and inject subcutaneously onto the rear flank of CD-1 nu/nu mice. Prepare test compound in an appropriate vehicle and administer by oral gavage when tumors are established (7-21 days after implant). Tumor response is determined by tumor volume measurement performed twice a week during the course of treatment. Body weight is taken as a general measurement of toxicity.

[2] = tested on: MAXF 583 human tumor xenograft cells; experiment: Oncotest tumor clonogenic assay, MAXF 583; type: cell-based; details: colony formation, Mammary MAXF 583, ductual adeno carcinoma, md, read-out: Absolute IC50
[3] = target: DNA-PK (Homo sapiens, UniProt P78527); experiment: DNA-PK Z'LYTE in vitro enzyme assay; type: biochemical; details: 25.0 micromolar ATP; read-out: absolute IC50
Excerpt: Use the Z'LYTE® kinase assay format (Invitrogen) to determine IC50 values against DNA-PK for a compound. This is a fluorescence based, coupled enzyme assay format based on sensitivity of phosphorylated vs. nonphosphorylated dual labeled peptide substrate (Coumerin on amino terminus, Fluorescein on carboxy terminus) to proteolysis. Use the Fluorescence Resonance Energy Transfer (FRET) ratio to monitor DNA-PK activity where phosphorylation of the peptide protects the peptide from proteolytic cleavage and the FRET of the substrate is maintained. Perform the kinase reaction using 10 microliter reaction volume in a Corning®, low volume NBS, black 384 well plate (Corning® #3676). […] Read the plate on a fluorescence plate reader with 400 nm wavelength excitation filter and emission filters of 445 and 520 nm Use the signal measured with 445 nm filter (specific to Coumarin) over the signal measured with 520 filter (specific to fluorescein) to calculate the FRET ratio. […]

IC50 [2]: 88 nM
IC50 [3]: 4.24 nM
Compound: CO[C@@H](C)Cn1c(=O)n(C)c2cnc3ccc(-c4cncc(C(C)(C)O)c4)cc3c21 [Example 1, 8-[5-(1-Hydroxy-1-methylethyl)pyridin-3-yl]-1-[(2S)-2-methoxypropyl]-3-methyl-1,3-dihydro-2H-imidazo[4,5-c]quinolin-2-one]
% TGI ([1]; H1975, 3 mg/kg BID): 13.8%
% TGI ([1]; H1975, 6 mg/kg BID): 26.9%
% TGI ([1]; H1975, 10 mg/kg BID): 62.7%
